Source: ChEMBL document CHEMBL4507285, “Data for DCP probe MRL-SYKi” (2021)

How the values were obtained:
[1] = test system: Tyrosine-protein kinase ABL1 (Homo sapiens), P00519 [H396P]; details: Compound concentration 100.0 nM
[2] = biological target: Cyclin-dependent kinase 16 (Homo sapiens) (UniProt Q00536); details: Compound concentration 100.0 nM
[3] = biological target: Serine/threonine-protein kinase Nek1 (Homo sapiens) (UniProt Q96PY6); details: Compound concentration 100.0 nM
[4] = biological target: MAP kinase-interacting serine/threonine-protein kinase 1 (Homo sapiens) (UniProt Q9BUB5); details: Compound concentration 100.0 nM
[5] = biological target: Serine/threonine-protein kinase MRCK gamma (Homo sapiens) (UniProt Q6DT37); details: Compound concentration 100.0 nM
[6] = biological target: Dual specificity tyrosine-phosphorylation-regulated kinase 2 (Homo sapiens) (UniProt Q92630); details: Compound concentration 100.0 nM
[7] = biological target: Serine/threonine-protein kinase DCLK1 (Homo sapiens) (UniProt O15075); details: Compound concentration 100.0 nM
[8] = biological target: Phosphatidylinositol 4,5-bisphosphate 3-kinase catalytic subunit beta isoform (Homo sapiens) (UniProt P42338); details: Compound concentration 100.0 nM
[9] = test system: Mast/stem cell growth factor receptor Kit (Homo sapiens), P10721 [V559D]; details: Compound concentration 100.0 nM
[10] = biological target: Phosphatidylinositol 4-kinase beta (Homo sapiens) (UniProt Q9UBF8); details: Compound concentration 100.0 nM
[11] = test system: Receptor-type tyrosine-protein kinase FLT3 (Homo sapiens), P36888 [D835H]; details: Compound concentration 100.0 nM
[12] = biological target: Serine/threonine-protein kinase ULK1 (Homo sapiens) (UniProt O75385); details: Compound concentration 100.0 nM
[13] = biological target: Tyrosine-protein kinase ABL2 (Homo sapiens) (UniProt P42684); details: Compound concentration 100.0 nM
[14] = biological target: Mitogen-activated protein kinase 6 (Homo sapiens) (UniProt Q16659); details: Compound concentration 100.0 nM
[15] = test system: Fibroblast growth factor receptor 3 (Homo sapiens), P22607 [G697C]; details: Compound concentration 100.0 nM
[16] = biological target: Ribosomal protein S6 kinase alpha-3 (Homo sapiens) (UniProt P51812); details: Compound concentration 100.0 nM
[17] = biological target: Protein kinase C delta type (Homo sapiens) (UniProt Q05655); details: Compound concentration 100.0 nM
[18] = biological target: Serine/threonine-protein kinase 3 (Homo sapiens) (UniProt Q13188); details: Compound concentration 100.0 nM
[19] = biological target: Mitogen-activated protein kinase 14 (Homo sapiens) (UniProt Q16539); details: Compound concentration 100.0 nM
[20] = biological target: Casein kinase II subunit alpha' (Homo sapiens) (UniProt P19784); details: Compound concentration 100.0 nM
[21] = biological target: Phosphatidylinositol 4,5-bisphosphate 3-kinase catalytic subunit delta isoform (Homo sapiens) (UniProt O00329); details: Compound concentration 100.0 nM
[22] = biological target: Serine/threonine-protein kinase PknB (Mycobacterium tuberculosis) (UniProt P9WI81); details: Compound concentration 100.0 nM
[23] = biological target: 5-hydroxytryptamine receptor 1A (Homo sapiens) (UniProt P08908); details: Compound concentration 10.0 uM
[24] = biological target: Ribosomal protein S6 kinase alpha-6 (Homo sapiens) (UniProt Q9UK32); details: Compound concentration 100.0 nM
[25] = biological target: Ribosomal protein S6 kinase alpha-3 (Homo sapiens) (UniProt P51812); details: Compound concentration 100.0 nM; remark: listed apart in the source
[26] = biological target: Serine/threonine-protein kinase 38 (Homo sapiens) (UniProt Q15208); details: Compound concentration 100.0 nM
[27] = biological target: Mitogen-activated protein kinase 3 (Homo sapiens) (UniProt P27361); details: Compound concentration 100.0 nM
[28] = biological target: Cyclin-dependent kinase 11B (Homo sapiens) (UniProt P21127); details: Compound concentration 100.0 nM
[29] = biological target: Phosphatidylinositol 4-phosphate 5-kinase type-1 alpha (Homo sapiens) (UniProt Q99755); details: Compound concentration 100.0 nM
[30] = biological target: Serine/threonine-protein kinase STK11 (Homo sapiens) (UniProt Q15831); details: Compound concentration 100.0 nM
[31] = biological target: 5-hydroxytryptamine receptor 2C (Homo sapiens) (UniProt P28335); details: Compound concentration 10.0 uM
[32] = biological target: Serine/threonine-protein kinase pim-1 (Homo sapiens) (UniProt P11309); details: Compound concentration 100.0 nM
[33] = biological target: Serine/threonine-protein kinase TAO1 (Homo sapiens) (UniProt Q7L7X3); details: Compound concentration 100.0 nM
[34] = test system: Tyrosine-protein kinase ABL1 (Homo sapiens), P00519 [E255K]; details: Compound concentration 100.0 nM
[35] = test system: ALK tyrosine kinase receptor (Homo sapiens), Q9UM73 [C1156Y]; details: Compound concentration 100.0 nM
[36] = biological target: Atypical kinase COQ8A, mitochondrial (Homo sapiens) (UniProt Q8NI60); details: Compound concentration 100.0 nM
[37] = biological target: Death-associated protein kinase 3 (Homo sapiens) (UniProt O43293); details: Compound concentration 100.0 nM
[38] = biological target: Tyrosine-protein kinase JAK1 (Homo sapiens) (UniProt P23458); details: Compound concentration 100.0 nM
[39] = biological target: Peripheral plasma membrane protein CASK (Homo sapiens) (UniProt O14936); details: Compound concentration 100.0 nM
[40] = test system: Epidermal growth factor receptor (Homo sapiens), P00533 [T790M]; details: Compound concentration 100.0 nM
[41] = biological target: Serine/threonine-protein kinase Sgk3 (Homo sapiens) (UniProt Q96BR1); details: Compound concentration 100.0 nM
[42] = biological target: Calcium/calmodulin-dependent protein kinase type II subunit alpha (Homo sapiens) (UniProt Q9UQM7); details: Compound concentration 100.0 nM
[43] = biological target: D(4) dopamine receptor (Homo sapiens) (UniProt P21917); details: Compound concentration 10.0 uM
[44] = biological target: Tyrosine-protein kinase Srms (Homo sapiens) (UniProt Q9H3Y6); details: Compound concentration 100.0 nM
[45] = biological target: Cyclin-dependent kinase-like 2 (Homo sapiens) (UniProt Q92772); details: Compound concentration 100.0 nM

Sequence of Ribosomal protein S6 kinase alpha-3 (Homo sapiens) (P51812 whole entry): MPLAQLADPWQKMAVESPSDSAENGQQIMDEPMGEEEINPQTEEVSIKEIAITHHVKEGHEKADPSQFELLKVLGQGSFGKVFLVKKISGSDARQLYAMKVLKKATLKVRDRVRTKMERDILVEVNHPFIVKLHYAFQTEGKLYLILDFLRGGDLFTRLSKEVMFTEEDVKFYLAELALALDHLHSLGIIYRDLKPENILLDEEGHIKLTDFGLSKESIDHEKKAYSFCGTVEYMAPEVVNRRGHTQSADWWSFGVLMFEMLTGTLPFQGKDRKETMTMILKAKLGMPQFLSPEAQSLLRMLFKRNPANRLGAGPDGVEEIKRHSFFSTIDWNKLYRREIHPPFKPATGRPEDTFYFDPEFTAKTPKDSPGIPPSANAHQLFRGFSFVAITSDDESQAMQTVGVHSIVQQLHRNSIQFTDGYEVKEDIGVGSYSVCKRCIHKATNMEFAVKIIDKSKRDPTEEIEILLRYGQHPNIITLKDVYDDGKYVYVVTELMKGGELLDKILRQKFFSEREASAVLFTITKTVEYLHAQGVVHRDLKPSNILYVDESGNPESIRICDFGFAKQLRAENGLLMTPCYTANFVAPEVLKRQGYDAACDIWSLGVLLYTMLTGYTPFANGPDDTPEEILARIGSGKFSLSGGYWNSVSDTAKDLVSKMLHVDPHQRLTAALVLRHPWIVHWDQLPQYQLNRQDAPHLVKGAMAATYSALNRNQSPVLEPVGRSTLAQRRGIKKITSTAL
Sequence of Dual specificity tyrosine-phosphorylation-regulated kinase 2 (Homo sapiens) (Q92630 whole entry): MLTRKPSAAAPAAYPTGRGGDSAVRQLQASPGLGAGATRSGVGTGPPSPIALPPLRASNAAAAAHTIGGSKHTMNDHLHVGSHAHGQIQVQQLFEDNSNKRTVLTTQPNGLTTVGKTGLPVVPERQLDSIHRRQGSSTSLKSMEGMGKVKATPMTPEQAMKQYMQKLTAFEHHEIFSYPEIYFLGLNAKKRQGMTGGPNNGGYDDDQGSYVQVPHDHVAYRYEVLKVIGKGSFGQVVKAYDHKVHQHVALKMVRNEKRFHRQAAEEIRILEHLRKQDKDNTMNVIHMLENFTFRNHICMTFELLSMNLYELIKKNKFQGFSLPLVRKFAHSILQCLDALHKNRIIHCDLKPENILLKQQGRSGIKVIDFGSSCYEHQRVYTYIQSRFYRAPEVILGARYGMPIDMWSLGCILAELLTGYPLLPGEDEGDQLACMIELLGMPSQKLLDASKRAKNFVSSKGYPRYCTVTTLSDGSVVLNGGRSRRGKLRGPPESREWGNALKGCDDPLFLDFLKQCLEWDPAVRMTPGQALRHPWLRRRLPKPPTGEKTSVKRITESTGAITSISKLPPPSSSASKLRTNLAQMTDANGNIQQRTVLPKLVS
Sequence of Serine/threonine-protein kinase Sgk3 (Homo sapiens) (Q96BR1 whole entry): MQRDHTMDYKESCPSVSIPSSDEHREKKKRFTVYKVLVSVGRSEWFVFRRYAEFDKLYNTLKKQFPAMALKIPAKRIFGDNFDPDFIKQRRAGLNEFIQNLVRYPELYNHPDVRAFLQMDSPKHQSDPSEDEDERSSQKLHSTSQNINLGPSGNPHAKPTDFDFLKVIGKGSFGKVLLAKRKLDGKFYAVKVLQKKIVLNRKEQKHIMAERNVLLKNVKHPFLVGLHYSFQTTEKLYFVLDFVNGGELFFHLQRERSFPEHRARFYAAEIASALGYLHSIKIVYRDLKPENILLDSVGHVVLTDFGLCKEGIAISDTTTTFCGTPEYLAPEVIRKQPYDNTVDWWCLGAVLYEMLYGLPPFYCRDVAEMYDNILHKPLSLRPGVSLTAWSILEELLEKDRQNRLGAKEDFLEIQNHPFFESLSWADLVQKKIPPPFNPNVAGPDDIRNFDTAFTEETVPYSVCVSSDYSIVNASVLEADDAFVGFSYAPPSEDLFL
Sequence of Mitogen-activated protein kinase 3 (Homo sapiens) (P27361 whole entry): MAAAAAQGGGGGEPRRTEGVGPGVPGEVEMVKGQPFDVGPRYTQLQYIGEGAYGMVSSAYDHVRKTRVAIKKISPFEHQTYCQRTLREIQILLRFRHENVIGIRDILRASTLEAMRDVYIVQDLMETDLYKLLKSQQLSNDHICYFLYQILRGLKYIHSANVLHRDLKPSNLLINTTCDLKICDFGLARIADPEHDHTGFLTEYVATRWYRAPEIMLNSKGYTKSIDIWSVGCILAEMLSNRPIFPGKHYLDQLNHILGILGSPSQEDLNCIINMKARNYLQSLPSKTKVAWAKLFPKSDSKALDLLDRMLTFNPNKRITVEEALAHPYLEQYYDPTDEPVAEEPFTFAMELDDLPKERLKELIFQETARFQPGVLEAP
Sequence of Ribosomal protein S6 kinase alpha-6 (Homo sapiens) (Q9UK32 whole entry): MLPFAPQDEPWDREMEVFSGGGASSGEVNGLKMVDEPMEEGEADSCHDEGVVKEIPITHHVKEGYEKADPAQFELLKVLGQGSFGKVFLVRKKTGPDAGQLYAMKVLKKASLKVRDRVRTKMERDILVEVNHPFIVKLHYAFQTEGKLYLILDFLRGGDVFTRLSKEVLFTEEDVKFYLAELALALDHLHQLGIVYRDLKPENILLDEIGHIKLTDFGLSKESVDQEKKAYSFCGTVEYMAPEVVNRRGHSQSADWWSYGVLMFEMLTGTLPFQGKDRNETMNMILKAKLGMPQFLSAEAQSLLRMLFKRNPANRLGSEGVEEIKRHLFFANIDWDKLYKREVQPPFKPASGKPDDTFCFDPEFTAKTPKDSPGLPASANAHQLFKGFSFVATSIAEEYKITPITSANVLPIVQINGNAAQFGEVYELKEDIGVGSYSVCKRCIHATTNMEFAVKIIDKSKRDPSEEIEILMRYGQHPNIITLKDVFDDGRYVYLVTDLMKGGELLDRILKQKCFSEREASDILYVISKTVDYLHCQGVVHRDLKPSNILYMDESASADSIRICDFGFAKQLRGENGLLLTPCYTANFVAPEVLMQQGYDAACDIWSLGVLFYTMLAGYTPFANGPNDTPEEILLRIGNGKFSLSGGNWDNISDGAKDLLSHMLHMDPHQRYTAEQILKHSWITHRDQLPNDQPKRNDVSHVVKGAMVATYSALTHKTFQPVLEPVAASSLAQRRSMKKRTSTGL
Sequence of Casein kinase II subunit alpha' (Homo sapiens) (P19784 whole entry, looked up, canonical isoform): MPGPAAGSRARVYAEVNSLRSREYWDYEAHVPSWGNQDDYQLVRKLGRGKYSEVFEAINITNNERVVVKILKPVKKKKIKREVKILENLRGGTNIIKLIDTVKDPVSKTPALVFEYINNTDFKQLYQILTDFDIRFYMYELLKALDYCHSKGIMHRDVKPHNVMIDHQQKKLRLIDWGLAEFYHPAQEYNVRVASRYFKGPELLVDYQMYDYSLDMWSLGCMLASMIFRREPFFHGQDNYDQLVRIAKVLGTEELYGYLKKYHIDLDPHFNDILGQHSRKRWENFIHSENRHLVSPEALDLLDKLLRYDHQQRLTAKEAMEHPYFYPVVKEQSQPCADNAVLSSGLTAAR
Sequence of Serine/threonine-protein kinase 3 (Homo sapiens) (Q13188 whole entry): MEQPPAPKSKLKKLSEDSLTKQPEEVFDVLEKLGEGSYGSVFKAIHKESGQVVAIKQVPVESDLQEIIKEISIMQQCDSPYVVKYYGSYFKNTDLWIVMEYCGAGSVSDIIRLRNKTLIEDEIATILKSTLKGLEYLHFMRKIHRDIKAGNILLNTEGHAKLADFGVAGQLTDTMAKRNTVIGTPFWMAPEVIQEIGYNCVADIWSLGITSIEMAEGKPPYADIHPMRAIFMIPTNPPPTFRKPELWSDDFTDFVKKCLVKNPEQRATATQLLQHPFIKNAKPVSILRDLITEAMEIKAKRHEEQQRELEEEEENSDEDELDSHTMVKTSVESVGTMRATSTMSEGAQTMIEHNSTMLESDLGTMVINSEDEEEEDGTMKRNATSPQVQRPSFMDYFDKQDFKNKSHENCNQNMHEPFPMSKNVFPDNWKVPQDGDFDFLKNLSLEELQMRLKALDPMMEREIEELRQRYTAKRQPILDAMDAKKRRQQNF
Sequence of Mast/stem cell growth factor receptor Kit (Homo sapiens), P10721 [V559D] (P10721 whole entry V559D): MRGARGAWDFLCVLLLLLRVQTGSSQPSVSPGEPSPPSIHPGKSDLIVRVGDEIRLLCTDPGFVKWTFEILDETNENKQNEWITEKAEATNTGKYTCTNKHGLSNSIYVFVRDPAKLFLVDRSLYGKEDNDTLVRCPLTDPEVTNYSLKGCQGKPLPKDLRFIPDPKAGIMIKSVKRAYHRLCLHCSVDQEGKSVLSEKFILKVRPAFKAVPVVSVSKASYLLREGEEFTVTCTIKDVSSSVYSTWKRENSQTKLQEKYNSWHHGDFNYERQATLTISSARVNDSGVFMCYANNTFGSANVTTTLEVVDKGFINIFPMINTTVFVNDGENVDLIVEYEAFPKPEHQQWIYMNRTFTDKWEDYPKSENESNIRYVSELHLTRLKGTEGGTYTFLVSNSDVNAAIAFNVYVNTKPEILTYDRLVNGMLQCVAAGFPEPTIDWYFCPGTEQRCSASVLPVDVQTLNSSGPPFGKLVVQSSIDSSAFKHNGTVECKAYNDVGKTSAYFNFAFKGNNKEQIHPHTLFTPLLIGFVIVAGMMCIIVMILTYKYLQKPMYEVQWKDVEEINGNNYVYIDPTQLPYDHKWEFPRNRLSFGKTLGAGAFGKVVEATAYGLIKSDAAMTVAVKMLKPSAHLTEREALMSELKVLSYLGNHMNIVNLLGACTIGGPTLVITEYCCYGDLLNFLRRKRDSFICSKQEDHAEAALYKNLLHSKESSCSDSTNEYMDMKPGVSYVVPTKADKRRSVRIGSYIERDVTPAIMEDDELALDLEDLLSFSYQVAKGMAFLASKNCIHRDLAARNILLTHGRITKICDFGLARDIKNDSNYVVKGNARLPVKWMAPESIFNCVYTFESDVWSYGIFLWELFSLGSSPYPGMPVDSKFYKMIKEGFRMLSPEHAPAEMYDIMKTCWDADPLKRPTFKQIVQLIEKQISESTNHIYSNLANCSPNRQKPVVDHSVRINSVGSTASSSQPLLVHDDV

Cc1ccc(-c2cnc([C@@]3(O)CC[C@H](C(=O)O)C(C)(C)C3)s2)cc1Nc1cccc(C(F)(F)F)n1 [MRL-SYKi-NC]
inactive: residual activity [1] 95.4% | residual activity [2] 93% | residual activity [3] 67.1% | residual activity [4] 75% | residual activity [5] 100% | residual activity [6] 82.4% | residual activity [7] 91.3% | residual activity [8] 77.1% | residual activity [9] 90% | residual activity [10] 81.2% | residual activity [11] 100% | residual activity [12] 73.1% | residual activity [13] 98.3% | residual activity [14] 100% | residual activity [15] 100% | residual activity [16] 93% | residual activity [17] 89% | residual activity [18] 98.1% | residual activity [19] 97% | residual activity [20] 59.8% | residual activity [21] 98.8% | residual activity [22] 86.7% | inhibition [23] 17.5% | residual activity [24] 90.8% | residual activity [25] 73.8% | residual activity [26] 87.9% | residual activity [27] 100% | residual activity [28] 95.4% | residual activity [29] 93% | residual activity [30] 70.8% | inhibition [31] 4.21% | residual activity [32] 100% | residual activity [33] 89.5% | residual activity [34] 80.8% | residual activity [35] 100% | residual activity [36] 100% | residual activity [37] 92.7% | residual activity [38] 92.6% | residual activity [39] 100% | residual activity [40] 77.8% | residual activity [41] 100% | residual activity [42] 90.8% | inhibition [43] -9.54% | residual activity [44] 100% | residual activity [45] 94.3%

Cc1cc(Nc2nccc(C)n2)cc(-c2cnc([C@@]3(O)CC[C@H](C(=O)O)C(C)(C)C3)s2)c1 [MRL-SYKi]
inactive: residual activity [1] 53.9% | residual activity [2] 100% | residual activity [3] 100% | residual activity [4] 94.8% | residual activity [5] 93.6% | residual activity [6] 100% | residual activity [7] 64.1% | residual activity [8] 100% | residual activity [9] 100% | residual activity [10] 88.6% | residual activity [11] 70.7% | residual activity [12] 100% | residual activity [13] 85.8% | residual activity [14] 97.9% | residual activity [15] 100% | residual activity [16] 87.6% | residual activity [17] 83.7% | residual activity [18] 100% | residual activity [19] 100% | residual activity [20] 100% | residual activity [21] 100% | residual activity [22] 100% | inhibition [23] -0.0778% | residual activity [24] 100% | residual activity [25] 83.4% | residual activity [26] 80.6% | residual activity [27] 98.9% | residual activity [28] 93.3% | residual activity [29] 100% | residual activity [30] 100% | inhibition [31] 3.02% | residual activity [32] 91.7% | residual activity [33] 100% | residual activity [34] 55.1% | residual activity [35] 100% | residual activity [36] 100% | residual activity [37] 100% | residual activity [39] 64.9% | residual activity [40] 91.6% | residual activity [41] 100% | residual activity [42] 100% | inhibition [43] -6.05% | residual activity [44] 81.2% | residual activity [45] 89.6%
active: residual activity [38] 31.8%
